Consider two sequences from patent US20200407717A1, “METHODS OF MODULATING ANTISENSE ACTIVITY” (Ionis Pharmaceuticals, Inc., priority 2018, published 2020).

In general, EC50 refers to the concentration giving half of the maximal effect. Read a low EC50 as a more potent agent.

e = 2'-O-(2-methoxyethyl) (MOE); d = 2'-deoxy (DNA)

The target of the data set is EGFR (Homo sapiens, UniProt P00533). Nature of the data set: Competitive NanoBRET binding assay. Details: made in house; host or cells: HEK293 cells. As to conditions: Competitive BRET vs 10 nM AF594-labeled 766636; Table 6. The method, then: NanoBRET (bioluminescence resonance energy transfer) binding assays were performed as described in Vickers and Crooke. PLOS One, 11(8), (2016). An EGFR NLuc construct was prepared by first amplifying human EGFR from the full length cDNA clone (Origene RC217223) with forward PCR primer 5′-[…]-3′ (SEQ ID NO: 1) and reverse PCR primer 5′-[…] (SEQ ID NO: 2). The amplified product was ligated into the NheI and XhoI sites of the NanoLuc expression vector pFC32K Nluc CMV-Neo (Promega). Protein was expressed in HEK293 cells and isolated using Protein G magnetic beads. For competitive BRET, the Alexafluor594-labeled modified oligonucleotide 766636 was diluted into water in opaque white 96-well plates at 10 nM and competed with 0.1-10,000 nM of unlabeled modified oligonucleotide. […] of 2× binding buffer containing […] (relative luminescence units) beads/well was added and plates were shaken for 10 minutes at room temperature. Nanoluciferase activity and BRET were measured in a Glowmax Discover plate reader and EC50 values, shown in the tables below, were calculated using GraphPad Prism. For direct BRET, Alexafluor594 modified nucleotides were diluted at 0.1-10,000 nM and experiments were performed as described above.

As for “AGGAAGGAAGCTGGCGATCT (sugars from the 5' end e5 d10 e5, all phosphorothioate, methylation of C not given here) [compound 25690]”, a half-maximal response (EC50) required 1.45 µM.

“GGCATATGCAGATAATGTTC (sugars from the 5' end e5 d10 e5, all phosphorothioate, methylation of C not given here) [compound 395254]”: the midpoint of the response, the EC50, lay at 1.24 µM.
